Source: ChEMBL document CHEMBL1149183, “Novel benzo[1,4]diazepin-2-one derivatives as endothelin receptor antagonists” (J Med Chem, 2004)

Assays:
[1] = biological target: T1, Endothelin receptor type B (Homo sapiens, UniProt P24530); assay: Antagonist activity towards human recombinant Endothelin B receptor expressed in chinese hamster ovary (CHO) cells determined using [125I]ET1 as radioligand; format: functional, cell-based
T1 sequence (P24530 whole entry): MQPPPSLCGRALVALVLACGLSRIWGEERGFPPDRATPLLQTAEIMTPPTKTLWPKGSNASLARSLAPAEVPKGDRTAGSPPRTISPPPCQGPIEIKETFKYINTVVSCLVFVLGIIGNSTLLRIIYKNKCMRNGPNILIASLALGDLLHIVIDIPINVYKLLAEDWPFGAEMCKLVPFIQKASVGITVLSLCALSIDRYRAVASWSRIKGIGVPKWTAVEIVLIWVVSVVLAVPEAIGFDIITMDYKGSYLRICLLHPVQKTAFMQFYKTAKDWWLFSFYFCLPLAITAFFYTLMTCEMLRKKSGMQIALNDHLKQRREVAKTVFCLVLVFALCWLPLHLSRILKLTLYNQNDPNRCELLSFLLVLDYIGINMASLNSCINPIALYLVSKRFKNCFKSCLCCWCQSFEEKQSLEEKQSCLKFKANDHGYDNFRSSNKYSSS

[2] = biological target: T2, Endothelin-1 receptor (Homo sapiens, UniProt P25101); assay: Antagonist activity towards human recombinant Endothelin A receptor expressed in chinese hamster ovary (CHO) cells determined using [125I]ET1 as radioligand; format: functional, cell-based
T2 sequence (P25101 whole entry): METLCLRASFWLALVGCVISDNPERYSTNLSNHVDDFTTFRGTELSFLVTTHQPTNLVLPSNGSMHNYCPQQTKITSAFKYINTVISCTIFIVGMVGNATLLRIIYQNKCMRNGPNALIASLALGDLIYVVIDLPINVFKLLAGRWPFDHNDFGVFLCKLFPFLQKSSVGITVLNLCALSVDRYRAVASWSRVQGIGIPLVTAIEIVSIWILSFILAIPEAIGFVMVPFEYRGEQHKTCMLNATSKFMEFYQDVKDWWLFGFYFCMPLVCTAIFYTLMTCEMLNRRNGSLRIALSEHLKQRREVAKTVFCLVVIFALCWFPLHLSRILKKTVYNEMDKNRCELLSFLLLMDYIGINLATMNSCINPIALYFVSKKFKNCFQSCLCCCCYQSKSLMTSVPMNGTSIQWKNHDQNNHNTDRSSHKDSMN

| IC50 [1] | IC50 [2] | SMILES |
| --- | --- | --- |
| 9250 nM | 384 nM | COc1cnc(O[C@H](C(=O)O)[C@@]2(c3ccccc3)NCC(=O)N(C)c3ccccc32)nc1 (racemic) |
| 78.2 nM | 25 nM | COc1ccc(CN2C(=O)CN[C@](c3cccc(Cl)c3)([C@H](Oc3nc(C)cc(C)n3)C(=O)O)c3ccccc32)cc1 (racemic) |
| 1810 nM | 262 nM | COc1cc(OC)cc(O[C@H](C(=O)O)[C@@]2(c3ccccc3)NCC(=O)N(C)c3ccc(Cl)cc32)c1 (racemic) |
| 3530 nM | 123 nM | Cc1cc(C)nc(O[C@H](C(=O)O)[C@@]2(c3ccccc3)NCC(=O)N(Cc3ccc(C(=O)O)cc3)c3ccccc32)n1 (racemic) |
| 8620 nM | > 10000 nM | CC(C)c1ccc(O[C@H](C(=O)O)[C@@]2(c3ccccc3)NCC(=O)N(Cc3c(Cl)cccc3Cl)c3ccccc32)cc1 (racemic) |
| 18.5 nM | 3.7 nM | Cc1cc(C)nc(O[C@H](C(=O)O)[C@@]2(c3ccccc3)NCC(=O)N(Cc3cccc(F)c3F)c3ccccc32)n1 (racemic) |
| 13.1 nM | 7.9 nM | Cc1cc(C)nc(O[C@H](C(=O)O)[C@@]2(c3ccccc3)NCC(=O)N(Cc3cc(F)cc(F)c3)c3ccccc32)n1 (racemic) |
| > 10000 nM |  | CN1C(=O)CN[C@](c2ccccc2)([C@H](Oc2ncccn2)C(=O)O)c2ccccc21 (racemic) |
| 122 nM | 17.3 nM | Cc1cc(C)nc(O[C@H](C(=O)O)[C@@]2(c3ccccc3)NCC(=O)N(Cc3ccc(Cl)cc3)c3ccccc32)n1 (racemic) |
| 22.5 nM | 104 nM | Cc1cc(C)nc(O[C@H](C(=O)O)[C@@]2(c3ccccc3)NCC(=O)N(Cc3ccccc3C(F)(F)F)c3ccccc32)n1 (racemic) |
| 94.3 nM | 10.2 nM | COc1ccc(CN2C(=O)CN[C@](c3cccc(OC)c3)([C@H](Oc3nc(C)cc(C)n3)C(=O)O)c3ccccc32)cc1 (racemic) |
| > 10000 nM | 6600 nM | CSc1cnc(O[C@H](C(=O)O)[C@@]2(c3ccccc3)NCC(=O)N(C)c3ccccc32)nc1 (racemic) |
| 32.8 nM | 6.5 nM | Cc1cc(C)nc(O[C@H](C(=O)O)[C@@]2(c3ccccc3)NCC(=O)N(Cc3ccc(F)c(F)c3)c3ccccc32)n1 (racemic) |
| 26.8 nM | 6.7 nM | Cc1cc(C)nc(O[C@H](C(=O)O)[C@@]2(c3ccccc3)NCC(=O)N(Cc3cccc(F)c3)c3ccccc32)n1 (racemic) |
| 1470 nM | 129 nM | COc1cccc(O[C@H](C(=O)O)[C@@]2(c3ccccc3)NCC(=O)N(Cc3c(Cl)cccc3Cl)c3ccccc32)c1 (racemic) |
| 253 nM | 45.9 nM | Cc1cc(C)nc(O[C@H](C(=O)O)[C@@]2(c3ccccc3)NCC(=O)N(CCCC(=O)O)c3ccccc32)n1 (racemic) |
| 16.7 nM | 5 nM | Cc1cccc(CN2C(=O)CN[C@](c3ccccc3)([C@H](Oc3nc(C)cc(C)n3)C(=O)O)c3ccccc32)c1 (racemic) |
| 80.2 nM |  | COc1ccc(CN2C(=O)CN[C@](c3ccccc3F)([C@H](Oc3nc(C)cc(C)n3)C(=O)O)c3ccccc32)cc1 (racemic) |
| 18.3 nM | 17.1 nM | Cc1cc(C)nc(O[C@H](C(=O)O)[C@@]2(c3ccccc3)NCC(=O)N(CCCc3ccccc3)c3ccccc32)n1 (racemic) |
| > 1000 nM | > 10000 nM | Cc1cccc(O[C@H](C(=O)O)[C@@]2(c3ccccc3)NCC(=O)N(Cc3c(Cl)cccc3Cl)c3ccccc32)c1C (racemic) |
| 3640 nM | 69.8 nM | Cc1cc(C)nc(O[C@H](C(=O)O)[C@@]2(c3ccccc3)NCCOc3ccccc32)n1 (racemic) |
| > 10000 nM | > 10000 nM | O=C(O)[C@@H](Oc1ccccc1Cl)[C@@]1(c2ccccc2)NCC(=O)N(Cc2c(Cl)cccc2Cl)c2ccccc21 (racemic) |
| 181 nM | 221 nM | COc1ccc(CN2C(=O)CN[C@](c3ccc(C)cc3)([C@H](Oc3nc(C)cc(C)n3)C(=O)O)c3ccccc32)cc1 |
| > 1000 nM | > 10000 nM | Cc1ccc(C)c(O[C@H](C(=O)O)[C@@]2(c3ccccc3)NCC(=O)N(Cc3c(Cl)cccc3Cl)c3ccccc32)c1 (racemic) |

| IC50 [1] | IC50 [2] | SMILES |
| --- | --- | --- |
| 743 nM | 126 nM | Cc1cc(C)nc(O[C@H](C(=O)O)[C@@]2(c3ccccc3)NCC(=O)N(CCN3CCOCC3)c3ccccc32)n1 (racemic) |
| > 10000 nM | > 10000 nM | Cc1ccccc1O[C@H](C(=O)O)[C@@]1(c2ccccc2)NCC(=O)N(Cc2c(Cl)cccc2Cl)c2ccccc21 (racemic) |
| 25.5 nM | 6.4 nM | Cc1cc(C)nc(O[C@H](C(=O)O)[C@@]2(c3ccccc3)NCC(=O)N(Cc3cccc(Br)c3)c3ccccc32)n1 (racemic) |
| 966 nM | 156 nM | Cc1ccc(O[C@H](C(=O)O)[C@@]2(c3ccccc3)NCC(=O)N(Cc3c(Cl)cccc3Cl)c3ccccc32)cc1 (racemic) |
| 119 nM | 25.8 nM | Cc1cc(C)nc(O[C@H](C(=O)O)[C@@]2(c3ccccc3)NCC(=O)N(Cc3ccc(Br)cc3)c3ccccc32)n1 (racemic) |
| 1780 nM | 387 nM | Cc1cc(C)nc(O[C@H](C(=O)O)[C@@]2(c3ccccc3)NCC(=O)N(CCN(C)C)c3ccccc32)n1 (racemic) |
| 72.7 nM | 7.2 nM | Cc1cc(C)nc(O[C@H](C(=O)O)[C@@]2(c3ccccc3)NCC(=O)N(Cc3cc(F)c(F)cc3F)c3ccccc32)n1 (racemic) |
| 558 nM | 13 nM | Cc1cc(C)nc(O[C@H](C(=O)O)[C@@]2(c3ccccc3)NCC(=O)N(CC(=O)O)c3ccccc32)n1 (racemic) |
| 47.1 nM | 17 nM | Cc1cc(C)nc(O[C@H](C(=O)O)[C@@]2(c3ccccc3)NCC(=O)N(Cc3ccc(C(F)(F)F)cc3)c3ccccc32)n1 (racemic) |
| 32.9 nM | 6.7 nM | Cc1cc(C)nc(O[C@H](C(=O)O)[C@@]2(c3ccccc3)NCC(=O)N(Cc3cc(F)ccc3F)c3ccccc32)n1 (racemic) |
| 7840 nM | 91.7 nM | Cc1cc(C)nc(O[C@H](C(=O)O)[C@@]2(c3ccccc3)NCCCc3ccccc32)n1 (racemic) |
| 82 nM | 83.4 nM | Cc1cc(C)nc(O[C@H](C(=O)O)[C@@]2(c3ccccc3)NCC(=O)N(CC3CCCCC3)c3ccccc32)n1 (racemic) |
| 241 nM | 24.9 nM | COc1ccc(CN2C(=O)CN[C@](c3cccc(C(F)(F)F)c3)([C@H](Oc3nc(C)cc(C)n3)C(=O)O)c3ccccc32)cc1 (racemic) |
| 9480 nM | 927 nM | CN1C(=O)CN[C@](c2ccccc2)([C@H](Oc2ncc(Br)cn2)C(=O)O)c2ccccc21 (racemic) |
| 745 nM | 29 nM | Cc1cccc(O[C@H](C(=O)O)[C@@]2(c3ccccc3)NCC(=O)N(Cc3c(Cl)cccc3Cl)c3ccccc32)c1 (racemic) |
| 47.8 nM | 7.5 nM | COCCOCN1C(=O)CN[C@](c2ccccc2)([C@H](Oc2nc(C)cc(C)n2)C(=O)O)c2ccccc21 (racemic) |
| > 10000 nM | 5920 nM | COc1ccccc1O[C@H](C(=O)O)[C@@]1(c2ccccc2)NCC(=O)N(Cc2c(Cl)cccc2Cl)c2ccccc21 (racemic) |
| 55 nM | 8.9 nM | Cc1cc(C)nc(O[C@H](C(=O)O)[C@@]2(c3ccccc3)NCC(=O)N(Cc3ccccc3C)c3ccccc32)n1 (racemic) |
| 5600 nM | 3840 nM | COc1cc(OC)cc(O[C@H](C(=O)O)[C@@]2(c3ccccc3)NCC(=O)N(C)c3cc(Cl)ccc32)c1 (racemic) |
| 6270 nM |  | COc1cc(OC)cc(O[C@H](C(=O)O)[C@@]2(c3ccccc3)NCC(=O)N(C)c3ccccc32)c1 (racemic) |
| 25.3 nM | 11.8 nM | Cc1cc(C)nc(O[C@H](C(=O)O)[C@@]2(c3ccccc3)NCC(=O)N(Cc3cc(F)c(F)c(F)c3)c3ccccc32)n1 (racemic) |
| 761 nM | 278 nM | COc1ccc(CN2C(=O)CN[C@](c3cc(C)cc(C)c3)([C@H](Oc3nc(C)cc(C)n3)C(=O)O)c3ccccc32)cc1 (racemic) |
| 8030 nM | 443 nM | COc1cc(OC)cc(O[C@H](C(=O)O)[C@@]2(c3ccccc3)NCC(=O)N(C)c3cc(OC)c(OC)cc32)c1 (racemic) |

| SMILES | IC50 [1] | IC50 [2] |
| --- | --- | --- |
| Cc1cc(C)nc(O[C@H](C(=O)O)[C@@]2(c3ccccc3)NCC(=O)N(CC3CC3)c3ccccc32)n1 (racemic) | 87.8 nM | 7.3 nM |
| Cc1cc(C)nc(O[C@H](C(=O)O)[C@@]2(c3ccccc3)NCc3nnc(CC(=O)O)n3-c3ccccc32)n1 (racemic) | 261 nM | 58.8 nM |
| Cc1cc(C)nc(O[C@H](C(=O)O)[C@@]2(c3ccccc3)NCc3nnc(C)n3-c3ccccc32)n1 (racemic) | 250 nM |  |
| Cc1cc(C)nc(O[C@H](C(=O)O)[C@@]2(c3ccccc3)NCc3c(C(=O)O)nc(C)n3-c3ccccc32)n1 (racemic) | 711 nM | 604 nM |
